Assay [1] deals with T1, recombinant METTL3/METTL14 complex (Homo sapiens, UniProt Q86U44).
T1 construct: purchased Active Motif 311970; host or cells: Sf9 cells
Put plainly: METTL3/14 Scintillation Proximity Assay (SPA), RNA methyltransferase activity. The format is biochemical. The conditions noted are these: 5.31 nM METTL3/14 complex, 250 nM RNA substrate, 1 μM 3H-SAM, 90 min; for compounds marked * best of the two separated forms. For orientation: Scintillation proximity formats need no separation of bound from free tracer.

The test system of another assay is Caov-3 cells. The assay is described as follows: Caov-3 cellular viability assay (ATP-Lite, 72 h). Particulars: Homo sapiens, ATP-Lite luminescence, % viability relative to DMSO. The format is cell-based. Put shortly:
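IC50 values come from concentration-response fits of luminescent ATP content (ATP-Lite One Step), normalised as % viability versus DMSO. Compound exposure was 72 h at 37 °C in RPMI-1640/10% FBS with 0.1% final DMSO. Wells held 10000 cells each.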

Another assay concerns Kasumi-1 cells. Put plainly: Kasumi-1 cellular viability assay (ATP-Lite, 72 h). The format is cell-based. Particulars: Homo sapiens, ATP-Lite luminescence, % viability relative to DMSO. Put shortly: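 Viability was read by ATP-Lite One Step luminescence after 72 h compound treatment at 37 °C/5% CO2, normalised to DMSO control, with IC50 fitted from concentration-response. Cells were Kasumi-1 (AML FAB M2) at 15000 per well in RPMI-1640/10% FBS, 0.1% DMSO final.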

T1 sequence (Q86U44 whole entry): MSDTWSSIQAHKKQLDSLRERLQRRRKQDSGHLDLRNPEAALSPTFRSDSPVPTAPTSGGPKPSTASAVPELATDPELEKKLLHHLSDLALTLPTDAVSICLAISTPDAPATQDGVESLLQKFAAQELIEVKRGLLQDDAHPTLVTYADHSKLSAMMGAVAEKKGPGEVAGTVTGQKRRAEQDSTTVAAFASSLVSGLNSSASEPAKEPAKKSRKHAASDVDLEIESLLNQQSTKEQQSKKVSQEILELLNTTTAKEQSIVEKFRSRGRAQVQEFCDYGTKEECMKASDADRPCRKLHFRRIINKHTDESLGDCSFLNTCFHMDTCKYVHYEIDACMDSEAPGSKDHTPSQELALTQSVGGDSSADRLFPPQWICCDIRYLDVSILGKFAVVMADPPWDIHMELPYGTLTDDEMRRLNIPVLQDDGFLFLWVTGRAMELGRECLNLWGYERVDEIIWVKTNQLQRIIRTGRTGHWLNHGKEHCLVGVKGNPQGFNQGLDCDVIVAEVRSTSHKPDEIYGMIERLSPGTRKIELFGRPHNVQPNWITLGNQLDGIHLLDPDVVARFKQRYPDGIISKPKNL
T1 sequence (Q9HCE5 whole entry partner): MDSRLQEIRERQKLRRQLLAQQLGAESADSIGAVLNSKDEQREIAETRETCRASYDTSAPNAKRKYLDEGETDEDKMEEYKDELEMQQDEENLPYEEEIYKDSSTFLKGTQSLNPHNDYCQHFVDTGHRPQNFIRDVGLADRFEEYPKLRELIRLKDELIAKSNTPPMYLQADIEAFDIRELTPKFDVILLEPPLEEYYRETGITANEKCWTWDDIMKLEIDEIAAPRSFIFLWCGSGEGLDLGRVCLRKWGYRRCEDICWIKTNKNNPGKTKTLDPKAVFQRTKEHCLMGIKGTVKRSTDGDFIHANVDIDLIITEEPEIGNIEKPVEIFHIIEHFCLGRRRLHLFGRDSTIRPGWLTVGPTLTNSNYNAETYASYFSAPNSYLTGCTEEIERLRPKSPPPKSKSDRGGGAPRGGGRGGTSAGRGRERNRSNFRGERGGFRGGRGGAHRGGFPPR

The IC50 is the concentration needed to halve the response being measured. With `COc1cc(-c2cn(Cc3ccc(N4CCCC(N5CCC6(CCC6)C5)C4)nn3)nn2)c2cn[nH]c2c1` (stereo not drawn) [Compound 008, 4-(1-((6-(3-(6-azaspiro[3.4]octan-6-yl)piperidin-1-yl)pyridazin-3-yl)methyl)-1H-1,2,3-triazol-4-yl)-6-methoxy-1H-indazole], the IC50 is at most 50 nM in assay [1], 500 to 5000 nM in the assay on Caov-3 cells and over 5000 nM with Kasumi-1 cells.

Turning to `O=C(Nc1cc(=O)n2ccccc2n1)C1(c2ccc(N3CCC[C@@H](NCC4CCC4)C3)cc2)COC1` [Compound 278, (R)-3-(4-(3-((cyclobutylmethyl)amino)piperidin-1-yl)phenyl)-N-(4-oxo-4H-pyrido[1,2-a]pyrimidin-2-yl)oxetane-3-carboxamide], the results for the concentration for half-maximal inhibition (IC50) (in assay [1]; with Caov-3 cells; in the assay on Kasumi-1 cells) were at most 50 nM, at most 500 nM and at most 500 nM, respectively.

In the case of `CC(c1cnn(-c2cncc(N(C)C)c2)c1)n1ccc(N2CCC[C@@H](NCC3CCC3)C2)cc1=O` (mixture of isomers) [Compound 156, 4-((R)-3-((cyclobutylmethyl)amino)piperidin-1-yl)-1-(1-(1-(5-(dimethylamino)pyridin-3-yl)-1H-pyrazol-4-yl)ethyl)pyridin-2(1H)-one], the IC50 was at most 50 nM in assay [1], at most 500 nM with Caov-3 cells and at most 500 nM in the assay with Kasumi-1 cells.

Consider `O=C(Nc1cncc(N2CC3CC3C2)n1)C1(c2ccc(N3CCC[C@@H](NCC4CCC4)C3)cn2)COC1` (stereo partly drawn) [Compound 270, N-(6-(3-azabicyclo[3.1.0]hexan-3-yl)pyrazin-2-yl)-3-(5-((R)-3-((cyclobutylmethyl)amino)piperidin-1-yl)pyridin-2-yl)oxetane-3-carboxamide], for which the IC50 in assay [1] is at most 50 nM; with Caov-3 cells it was at most 500 nM; in the assay on Kasumi-1 cells it was at most 500 nM.

Regarding `CC(c1ccc(N2CCC[C@@H](NCC34CC(F)(C3)C4)C2)cn1)n1cc(-c2cncc(N3CCCC3)n2)nn1` (stereo partly drawn) [Compound 304, (3R)—N-((3-fluorobicyclo[1.1.1]pentan-1-yl)methyl)-1-(6-(1-(4-(6-(pyrrolidin-1-yl)pyrazin-2-yl)-1H-1,2,3-triazol-1-yl)ethyl)pyridin-3-yl)piperidin-3-amine], the IC50 is at most 50 nM in assay [1], at most 500 nM in the assay on Caov-3 cells and at most 500 nM in the assay on Kasumi-1 cells.

`COc1cncc(-c2cn(C(C)c3ccc(N4CCC[C@@H](NCC5CCC5)C4)cc3)nn2)c1` (mixture of isomers) [Compound 076, (3R)-N-(cyclobutylmethyl)-1-(4-(1-(4-(5-methoxypyridin-3-yl)-1H-1,2,3-triazol-1-yl)ethyl)phenyl)piperidin-3-amine]: the results for the IC50 (in assay [1]; in the assay with Caov-3 cells; in the assay on Kasumi-1 cells) were at most 50 nM, 500 to 5000 nM and 500 to 5000 nM, respectively.

For `CC(n1cc(-c2cncc(N3CCCC3=O)c2)nn1)n1ccc(N2CCC[C@@H](NCC3CCC3)C2)cc1=O` (single isomer, unassigned) [Compound 159], the half-maximal inhibitory concentration (IC50) is at most 50 nM in assay [1], 500 to 5000 nM in the assay on Caov-3 cells and 500 to 5000 nM with Kasumi-1 cells.

With `CC(n1cc(-c2cc(N(C)C)cnn2)nn1)n1ccc(N2CCC[C@@H](NCC3CCC3)C2)cc1=O` (single isomer, unassigned) [Compound 198], the half-maximal inhibitory concentration (IC50) in assay [1] was at most 50 nM; in the assay on Caov-3 cells, 500 to 5000 nM; with Kasumi-1 cells, 500 to 5000 nM.

Take `COc1cncc(-c2cn(C3(c4ccc(N5CCC[C@@H](NCC6CCC6)C5)cn4)COC3)cn2)c1` [Compound 267, (R)-N-(cyclobutylmethyl)-1-(6-(3-(4-(5-methoxypyridin-3-yl)-1H-imidazol-1-yl)oxetan-3-yl)pyridin-3-yl)piperidin-3-amine]: the figures for the IC50 (in assay [1]; in the assay on Caov-3 cells; in the assay on Kasumi-1 cells) were at most 50 nM, 500 to 5000 nM and 500 to 5000 nM, respectively.

For the molecule `CC(c1cnn(-c2cc(N3CCCC3)cnn2)c1)n1ccc(N2CCC[C@@H](NCC3CC3)C2)cc1=O` (single isomer, unassigned) [Compound 219], the figures for the IC50 (in assay [1]; in the assay on Caov-3 cells; in the assay with Kasumi-1 cells) were at most 50 nM, at most 500 nM and 500 to 5000 nM, respectively.

Regarding `COc1cncc(-c2cn(Cc3ccc(N4C[C@@H](F)C[C@@H](NCC5CCC5)C4)nn3)nn2)c1` [Compound 056, (3R,5S)-N-(cyclobutylmethyl)-5-fluoro-1-(6-((4-(5-methoxypyridin-3-yl)-1H-1,2,3-triazol-1-yl)methyl)pyridazin-3-yl)piperidin-3-amine], the values for the concentration for half-maximal inhibition (IC50) (in assay [1]; in the assay with Caov-3 cells; in the assay with Kasumi-1 cells) were at most 50 nM, over 5000 nM and over 5000 nM, respectively.

In the case of `CC#Cc1cncc(-c2cn(C3(c4ccc(N5CCC[C@@H](NCC6CC6)C5)cn4)COC3)nn2)c1` [Compound 345, (R)-N-(cyclopropylmethyl)-1-(6-(3-(4-(5-(prop-1-vn-1-yl)pyridin-3-yl)-1H-1,2,3-triazol-1-yl)oxetan-3-yl)pyridin-3-yl)piperidin-3-amine], the half-maximal inhibitory concentration (IC50) in assay [1] was at most 50 nM; with Caov-3 cells, at most 500 nM; with Kasumi-1 cells, at most 500 nM.

`COc1cncc(-c2cn(C(C)c3ccc(N4CCC[C@@H](NCC5CCC5)C4)nn3)nn2)n1` (single isomer, unassigned) [Compound 258]: the results for the IC50 (in assay [1]; with Caov-3 cells; in the assay on Kasumi-1 cells) were at most 50 nM, 500 to 5000 nM and 500 to 5000 nM, respectively.

As for `COc1cncc(-c2cc(Cn3ccc(N4CCC[C@@H](NCC5CCC5)C4)cc3=O)n[nH]2)c1` [Compound 095, (R)-4-(3-((cyclobutylmethyl)amino)piperidin-1-yl)-1-((5-(5-methoxypyridin-3-yl)-1H-pyrazol-3-yl)methyl)pyridin-2(1H)-one], the IC50 was at most 50 nM in assay [1], at most 500 nM with Caov-3 cells and 500 to 5000 nM in the assay with Kasumi-1 cells.

As to `O=C(NCc1ccc(N2CCC[C@@H](NCC3CCC3)C2)nn1)c1cc(=O)n2ccccc2n1` [Compound 002, (R)-N-((6-(3-((cyclobutylmethyl)amino)piperidin-1-yl)pyridazin-3-yl)methyl)-4-oxo-4H-pyrido[1,2-a]pyrimidine-2-carboxamide], the IC50 in assay [1] is at most 50 nM; with Caov-3 cells it was over 5000 nM; with Kasumi-1 cells, over 5000 nM.

On to `CC(c1ccc(N2CCC[C@@H](NCC3CCC3)C2)cn1)n1cc(-c2cncc(-n3cccn3)n2)nn1` (single isomer, unassigned) [Compound 293], for which the results for the IC50 (in assay [1]; in the assay on Caov-3 cells; in the assay on Kasumi-1 cells) were at most 50 nM, 500 to 5000 nM and 500 to 5000 nM, respectively.

Turning to `CC(n1cc(-c2cncc(N(C)C)n2)nn1)n1ccc(N2CCC[C@@H](NCC3CCC3)C2)cc1=O` (stereo partly drawn) [Compound 164, 4-((R)-3-((cyclobutylmethyl)amino)piperidin-1-yl)-1-(1-(4-(6-(dimethylamino)pyrazin-2-yl)-1H-1,2,3-triazol-1-yl)ethyl)pyridin-2(1H)-one], the IC50 in assay [1] was at most 50 nM; in the assay with Caov-3 cells it was at most 500 nM; in the assay on Kasumi-1 cells, at most 500 nM.

Turning to `FC1(F)CC(c2ccc(N3CCC[C@@H](NCC4CC4)C3)cn2)(n2cc(-c3cncc(C4CC4)c3)nn2)C1` [Compound 315, (R)-N-(cyclopropylmethyl)-1-(6-(1-(4-(5-cyclopropylpyridin-3-yl)-1H-1,2,3-triazol-1-yl)-3,3-difluorocyclobutyl)pyridin-3-yl)piperidin-3-amine], the IC50 in assay [1] is at most 50 nM; in the assay with Caov-3 cells, 500 to 5000 nM; with Kasumi-1 cells, 500 to 5000 nM.

Turning to `FC(F)(F)C1(CN[C@@H]2CCCN(c3ccc(C4(n5cc(-c6cncc(C7CC7)c6)nn5)COC4)nc3)C2)CC1` [Compound 335, (R)-1-(6-(3-(4-(5-cyclopropylpyridin-3-yl)-1H-1,2,3-triazol-1-yl)oxetan-3-yl)pyridin-3-yl)-N-((1-(trifluoromethyl)cyclopropyl)methyl)piperidin-3-amine], the results for the IC50 (in assay [1]; in the assay on Caov-3 cells; with Kasumi-1 cells) were at most 50 nM, at most 500 nM and 500 to 5000 nM, respectively.

Regarding `CC(n1cc(-c2cncc(NCCO)c2)nn1)n1ccc(N2CCC[C@@H](NCC3CC3)C2)cc1=O` (stereo partly drawn) [Compound 205], the figures for the IC50 (in assay [1]; in the assay with Caov-3 cells; in the assay with Kasumi-1 cells) were at most 50 nM, 500 to 5000 nM and over 5000 nM, respectively.

Consider `O=c1cc(-c2cn(Cc3ccc(N4CCC[C@@H](NCC5CCC5)C4)nn3)nn2)nc2ccccn12` [Compound 017, (R)-2-(1-((6-(3-((cyclobutylmethyl)amino)piperidin-1-yl)pyridazin-3-yl)methyl)-1H-1,2,3-triazol-4-yl)-4H-pyrido[1,2-a]pyrimidin-4-one], for which the IC50 is at most 50 nM in assay [1], over 5000 nM with Caov-3 cells and over 5000 nM with Kasumi-1 cells.

Consider `CC(c1ccc(N2CCC[C@@H](NCC3CCC3)C2)nn1)n1cc(-c2cncc(N3CCCC3)n2)nn1` (single isomer, unassigned) [Compound 285], for which the results for the IC50 (in assay [1]; in the assay on Caov-3 cells; in the assay on Kasumi-1 cells) were at most 50 nM, at most 500 nM and at most 500 nM, respectively.

Consider `CC(n1cc(-c2cncc(N3CCC3)c2)nn1)n1ccc(N2CCC[C@@H](NCC3CCC3)C2)cc1=O` (single isomer, unassigned) [Compound 161], for which the IC50 in assay [1] is at most 50 nM; in the assay with Caov-3 cells it was at most 500 nM; in the assay on Kasumi-1 cells, at most 500 nM.

`FC12CC(CN[C@@H]3CCCN(c4ccc(C5(n6cc(-c7cncc(N8CCCC8)n7)nn6)COC5)nc4)C3)(C1)C2` [Compound 308, (R)-N-((3-fluorobicyclo[1.1.1]pentan-1-yl)methyl)-1-(6-(3-(4-(6-(pyrrolidin-1-yl)pyrazin-2-yl)-1H-1,2,3-triazol-1-yl)oxetan-3-yl)pyridin-3-yl)piperdin-3-amine]: the half-inhibitory concentration (IC50) in assay [1] was at most 50 nM; in the assay on Caov-3 cells it was at most 500 nM; in the assay with Kasumi-1 cells it was at most 500 nM.
